Data on three compounds can be found in publication PMC11902257, “Antiprotozoal Aminosteroids from Pachysandra terminalis” (Molecules, 2025).

“And” between values parts separate entries of the source, which are not always exact repeats. Equal entries are not always repeated.

The first data set has as its system Plasmodium falciparum (Pf) NF54 strain. Nature of the data set: in vitro antiplasmodial assay, 3H-hypoxanthine incorporation, erythrocytic stages. Particulars: Plasmodium falciparum, NF54, pure compounds, tested as mono- or bis-trifluoroacetates where marked; read-out: IC50 Pf (converted). The class given is cell-based. As to the method:
Plasmodium falciparum (Pf): Tests were performed against erythrocytic stages of the drug-sensitive NF54 strain. The NF54 strain was obtained from F. Hoffmann-La Roche Limited (Basel, Switzerland). The strain NF54 was originally derived from a patient living near Schiphol Airport, Amsterdam, who had never left the Netherlands. The assay was performed using a 3H-hypoxanthine incorporation assay. Serial compound dilutions were prepared with the medium as indicated above and then added in 96-well plates to parasite cultures incubated in the medium previously described, consisting of RPMI 1640 supplemented with 0.5% ALBUMAX® II, 25 mM Hepes, 25 mM NaHCO3 (pH 7.3), 0.36 mM hypoxanthine, and 100 μg/mL neomycin. The plates were incubated in a humidified atmosphere at 37 °C, 4% CO2, 3% O2, and 93% N2. After 48 h, 0.25 μCi of 3H-hypoxanthine was added to each well. Incubation was continued under identical conditions for a further 24 h. The plates were then harvested using a Betaplate™ cell harvester (Wallac, Zurich, Switzerland). The red blood cells were transferred onto a glass fiber filter and washed with distilled H2O. After drying, filters were inserted into a plastic foil with 10 mL of scintillation fluid and counted with a Betaplate™ liquid scintillation counter (Wallac, Zurich, Switzerland). Data were treated according to [44] (see below). The positive control was chloroquine.
(§1) Bioassay data and statistical methods: In all cases, the readout data were plotted in Microsoft Excel. Half-maximal inhibitory concentrations (IC50 values) were calculated from the sigmoidal dose-response curves by linear regression. Two independent replicates of the assay were performed in all cases, and the results were expressed as arithmetic mean ± deviation from the mean.
Take `C[C@@H]([C@H]1CC[C@H]2[C@@H]3CC[C@H]4C[C@]5(CC[C@]4(C)[C@H]3CC[C@]12C)c1ccccc1C(=O)N5C)N(C)C` [Compound 15, Spiropachysine]: the IC50 is 3 ± 1 µg/mL.
For the compound `C[C@@H]([C@H]1CC[C@H]2[C@@H]3CC=C4C[C@@H](N(C)C)CC[C@]4(C)[C@H]3CC[C@]12C)N(C)C` [Compound 13, Sarcodinine], the IC50 is 4.6 ± 0.7 µg/mL.
For `CNC1CCC2(C)C3CCC4(C)C(CCC4C(C)N(C)C)C3CCC2C1OC(=O)c1ccccc1` (stereo not shown) [Compound 7], the IC50 was 0.45 ± 0.09 µg/mL.

The same data set, now with this note: Plasmodium falciparum, NF54, values in brackets, calculated with the molecular masses of the corresponding salts; read-out: IC50 Pf (converted).
As to `C[C@@H]([C@H]1CC[C@H]2[C@@H]3CC[C@H]4C[C@]5(CC[C@]4(C)[C@H]3CC[C@]12C)c1ccccc1C(=O)N5C)N(C)C` [Compound 15, Spiropachysine], the concentration for half-maximal inhibition (IC50) was 6 µM.
Turning to `C[C@@H]([C@H]1CC[C@H]2[C@@H]3CC=C4C[C@@H](N(C)C)CC[C@]4(C)[C@H]3CC[C@]12C)N(C)C` [Compound 13, Sarcodinine], the 50% inhibitory concentration (IC50) is 7.7 µM.
As for `CNC1CCC2(C)C3CCC4(C)C(CCC4C(C)N(C)C)C3CCC2C1OC(=O)c1ccccc1` (stereo not shown) [Compound 7], the IC50 was 0.63 µM.

The data set is the same for the next values; noted with them: Selectivity index IC50(Cytotox)/IC50(Pf); pure compounds.
For `C[C@@H]([C@H]1CC[C@H]2[C@@H]3CC[C@H]4C[C@]5(CC[C@]4(C)[C@H]3CC[C@]12C)c1ccccc1C(=O)N5C)N(C)C` [Compound 15, Spiropachysine], the “SI (Pf)” value was 2.
Still for that read-out and setting: the result for `C[C@@H]([C@H]1CC[C@H]2[C@@H]3CC=C4C[C@@H](N(C)C)CC[C@]4(C)[C@H]3CC[C@]12C)N(C)C` [Compound 13, Sarcodinine] reads 2; that for `CNC1CCC2(C)C3CCC4(C)C(CCC4C(C)N(C)C)C3CCC2C1OC(=O)c1ccccc1` (stereo not shown) [Compound 7], 23.

The next data set concerns Trypanosoma brucei rhodesiense (Tbr) STIB900 strain. Description: in vitro antitrypanosomal assay, bloodstream forms, resazurin. It is filed as cell-based. Particulars: Selectivity index IC50(Cytotox)/IC50(Tbr); pure compounds. As to the method: Trypanosoma brucei rhodesiense (Tbr): The STIB900 strain is a derivative of the STIB704 strain isolated from a patient in Ifakara, Tanzania, in 1982 [43]. The bloodstream forms were cultivated as axenic culture in HMI-9 medium, supplemented with 15% heat-inactivated horse serum. Cultures were maintained at 37 °C in an atmosphere of 5% CO2. Test compounds were dissolved in DMSO (10 mg/mL), and serial drug dilutions of eleven 3-fold dilution steps covering a range from 100 to 0.002 μg/mL were prepared in a 96-well plate. Bloodstream-form of T. b rhodesiense strain STIB900 (2 × 10^3/well) was added into the wells. After 68 h incubation, 10 μL of resazurin solution (12.5 mg resazurin in 100 mL 1xPBS) was added per well, and plates were incubated for an additional 4 h. Subsequently, the plates were read with a Spectramax Gemini EM microplate fluorometer (Molecular Devices, San Jose, CA, USA) using an excitation wavelength of 536 nm and an emission wavelength of 588 nm. Data were treated according to [44] (see below). Melarsoprol was used as a positive control.
as §1
As to `C[C@@H]([C@H]1CC[C@H]2[C@@H]3CC[C@H]4C[C@]5(CC[C@]4(C)[C@H]3CC[C@]12C)c1ccccc1C(=O)N5C)N(C)C` [Compound 15, Spiropachysine], the “SI(Tbr)” value was 3.
Take `C[C@@H]([C@H]1CC[C@H]2[C@@H]3CC=C4C[C@@H](N(C)C)CC[C@]4(C)[C@H]3CC[C@]12C)N(C)C` [Compound 13, Sarcodinine]: the “SI(Tbr)” value is given as 4.
With `CNC1CCC2(C)C3CCC4(C)C(CCC4C(C)N(C)C)C3CCC2C1OC(=O)c1ccccc1` (stereo not shown) [Compound 7], the “SI(Tbr)” value is given as 133.

The data set is the same for the next values; noted with them: Trypanosoma brucei, pure compounds, tested as mono- or bis-trifluoroacetates where marked; read-out: IC50 Tbr (converted).
As to `C[C@@H]([C@H]1CC[C@H]2[C@@H]3CC[C@H]4C[C@]5(CC[C@]4(C)[C@H]3CC[C@]12C)c1ccccc1C(=O)N5C)N(C)C` [Compound 15, Spiropachysine], the IC50 is 2.21 ± 0.04 µg/mL.
As to `C[C@@H]([C@H]1CC[C@H]2[C@@H]3CC=C4C[C@@H](N(C)C)CC[C@]4(C)[C@H]3CC[C@]12C)N(C)C` [Compound 13, Sarcodinine], the IC50 is 2.6 ± 0.4 µg/mL.
Turning to `CNC1CCC2(C)C3CCC4(C)C(CCC4C(C)N(C)C)C3CCC2C1OC(=O)c1ccccc1` (stereo not shown) [Compound 7], the IC50 is 0.079 ± 0.001 µg/mL.

The same data set, now with this note: Trypanosoma brucei, values in brackets, calculated with the molecular masses of the corresponding salts; read-out: IC50 Tbr (converted).
In the case of `C[C@@H]([C@H]1CC[C@H]2[C@@H]3CC[C@H]4C[C@]5(CC[C@]4(C)[C@H]3CC[C@]12C)c1ccccc1C(=O)N5C)N(C)C` [Compound 15, Spiropachysine], the IC50 is 3.83 µM.
Turning to `C[C@@H]([C@H]1CC[C@H]2[C@@H]3CC=C4C[C@@H](N(C)C)CC[C@]4(C)[C@H]3CC[C@]12C)N(C)C` [Compound 13, Sarcodinine], the concentration for half-maximal inhibition (IC50) was 4.3 µM.
Take `CNC1CCC2(C)C3CCC4(C)C(CCC4C(C)N(C)C)C3CCC2C1OC(=O)c1ccccc1` (stereo not shown) [Compound 7]: the IC50 is 0.11 µM.

Still in this data set, the particulars now being: values in brackets, calculated with the molecular masses of the corresponding salts; read-out: IC50 Tbr (converted).
For `CNC1CCC2(C)C3CCC4(C)C(CCC4C(C)N(C)C)C3CCC2C1OC(=O)c1ccccc1` (stereo not shown) [Compound 7], the half-inhibitory concentration (IC50) is 0.112 µM.

System in the next data set: not listed separately
Nature of the data set: cytotoxicity against L-6 rat skeletal myoblasts, resazurin. The class given is cell-based.
Conditions: not given
As to the method: Cytotoxicity against L-6 rat skeletal myoblasts: The L6 rat skeletal myoblast cell line used for cytotoxicity tests was obtained from the American Type Culture Collection (ATCC, Manassas, VA, USA) as ATCC-CRL-1458 [50]. The cells were cultivated in RPMI 1640 medium supplemented with 1% L-glutamine (200mM) and 10% fetal bovine serum. Cultures were maintained at 37 °C in an atmosphere of 5% CO2. Assays were performed in 96-well plates, each well containing RPMI 1640 medium supplemented with 1% L-glutamine (200 mM), 10% fetal bovine serum, and 2 × 10^3 L-6 cells/well. Plates were incubated at 37 °C under a 5% CO2 atmosphere for 24 h. Compounds were dissolved in DMSO (10 mg/mL). After 24 h, serial drug dilutions of eleven 3-fold dilution steps covering a range from 100 to 0.002 μg/mL were prepared, and the plates were incubated at 37 °C under 5% CO2 for 70 h. After 70 h incubation, 10 μL of resazurin solution (12.5 mg resazurin in 100 mL 1xPBS) was added per well, and plates were incubated for an additional 2 h. After that, the plates were read with a Spectramax Gemini EM microplate fluorometer (Molecular Devices, San Jose, CA, USA) using an excitation wavelength of 536 nm and an emission wavelength of 588 nm. Data were treated according to [44] (see below). Podophyllotoxin served as a positive control.
as §1
Turning to `C[C@@H]([C@H]1CC[C@H]2[C@@H]3CC[C@H]4C[C@]5(CC[C@]4(C)[C@H]3CC[C@]12C)c1ccccc1C(=O)N5C)N(C)C` [Compound 15, Spiropachysine], the IC50 at 70 h was 7.3 µg/mL and 12.7 µM.
As for `C[C@@H]([C@H]1CC[C@H]2[C@@H]3CC=C4C[C@@H](N(C)C)CC[C@]4(C)[C@H]3CC[C@]12C)N(C)C` [Compound 13, Sarcodinine], the IC50 at 70 h is 11 µg/mL and 18 µM.
Regarding `CNC1CCC2(C)C3CCC4(C)C(CCC4C(C)N(C)C)C3CCC2C1OC(=O)c1ccccc1` (stereo not shown) [Compound 7], the IC50 at 70 h was 10 µg/mL and 15 µM.
